Data from PubChem BioAssay AID1259407 (Chemical Carcinogenesis Research Information System (CCRIS), 2018).
Active and inactive are the calls of the source. How the calls were made is not given here.

System: CCRIS mutagenicity, Ames/micronucleus/aberration tests
Assay: CCRIS mutagenicity studies
Conditions: Test System: AMES SALMONELLA TYPHIMURIUM

SMILES: Nc1ccc2cc3ccccc3cc2c1
- mutagenic call (Strain/Indicator: NM2000, Metabolic Activation: RAT, LIVER, S-9, AROCLOR 1254, Method: PREINCUBATION): active; positive
- mutagenic call (Strain/Indicator: NM2009, Metabolic Activation: RAT, LIVER, S-9, AROCLOR 1254, Method: PREINCUBATION): active; positive
- mutagenic call (Strain/Indicator: TA97, Metabolic Activation: NONE, Method: STANDARD PLATE): inactive; negative
- mutagenic call (Strain/Indicator: TA97, Metabolic Activation: RAT, LIVER, S-9, AROCLOR 1254, Method: STANDARD PLATE): active; positive
- mutagenic call (Strain/Indicator: TA97A, Metabolic Activation: RAT, LIVER, S-9, AROCLOR 1254, Method: STANDARD PLATE): active; positive
- mutagenic call (Strain/Indicator: TA98 (1,8-DNP6), Metabolic Activation: RAT LIVER, CYTOSOL, AROCLOR 1254, Method: STANDARD PLATE): active; positive
- mutagenic call (Strain/Indicator: TA98 (1,8-DNP6), Metabolic Activation: RAT LIVER, MICROSOMES, AROCLOR 1254, Method: STANDARD PLATE): active; positive
- mutagenic call (Strain/Indicator: TA98, Metabolic Activation: FERRET, LIVER, CYTOSOL, Method: STANDARD PLATE): inactive; negative
- mutagenic call (Strain/Indicator: TA98, Metabolic Activation: FERRET, LIVER, MICROSOMES, Method: STANDARD PLATE): active; positive
- mutagenic call (Strain/Indicator: TA98, Metabolic Activation: HAMSTER, LIVER, CYTOSOL, Method: STANDARD PLATE): inactive; negative
- mutagenic call (Strain/Indicator: TA98, Metabolic Activation: HAMSTER, LIVER, MICROSOMES, Method: STANDARD PLATE): active; positive
- mutagenic call (Strain/Indicator: TA98, Metabolic Activation: HUMAN, LIVER, CYTOSOL, Method: STANDARD PLATE): active; positive
- mutagenic call (Strain/Indicator: TA98, Metabolic Activation: HUMAN, RED BLOOD CELL, CYTOSOL, Method: PREINCUBATION): active; positive
- mutagenic call (Strain/Indicator: TA98, Metabolic Activation: NONE, Method: SPIRAL ASSAY): inactive; negative
- mutagenic call (Strain/Indicator: TA98, Metabolic Activation: PIG, LIVER, CYTOSOL, Method: STANDARD PLATE): inactive; negative
- mutagenic call (Strain/Indicator: TA98, Metabolic Activation: PIG, LIVER, MICROSOMES, Method: STANDARD PLATE): active; positive
- mutagenic call (Strain/Indicator: TA98, Metabolic Activation: RAT LIVER, CYTOSOL, AROCLOR 1254, Method: STANDARD PLATE): active; positive
- mutagenic call (Strain/Indicator: TA98, Metabolic Activation: RAT LIVER, MICROSOMES, AROCLOR 1254, Method: STANDARD PLATE): active; positive
- mutagenic call (Strain/Indicator: TA98, Metabolic Activation: RAT, LIVER, CYTOSOL, Method: STANDARD PLATE): inactive; negative
- mutagenic call (Strain/Indicator: TA98, Metabolic Activation: RAT, LIVER, MICROSOMES, Method: STANDARD PLATE): active; positive
- mutagenic call (Strain/Indicator: TA98, Metabolic Activation: RAT, LIVER, S-9, AROCLOR 1254 (0.5, 1, 2 OR 4%), Method: STANDARD PLATE): active; positive
- mutagenic call (Strain/Indicator: TA98, Metabolic Activation: RAT, LIVER, S-9, AROCLOR 1254, Method: SPIRAL ASSAY): active; positive
- mutagenic call (Strain/Indicator: TA98, Metabolic Activation: RAT, LIVER, S-9, AROCLOR 1254 OR PHENOBARBITOL, Method: STANDARD PLATE): active; positive
- mutagenic call (Strain/Indicator: TA98, Metabolic Activation: RAT, LIVER, S-9, PHENOBARBITAL, Method: STANDARD PLATE): active; positive
- mutagenic call (Strain/Indicator: TA100, Metabolic Activation: MOUSE, LIVER, MICROSOMES, BENZO[E]PYRENE AND TCDD, Method: STANDARD PLATE): active; positive
- mutagenic call (Strain/Indicator: TA100, Metabolic Activation: NONE, Method: SPIRAL ASSAY): inactive; negative
- mutagenic call (Strain/Indicator: TA100, Metabolic Activation: RAT, LIVER, PARENCHYMAL CELLS (FRESHLY ISOLATED OR STORED FOR 1 D OR CRYOPRESERVED), Method: PREINCUBATION): active; positive
- mutagenic call (Strain/Indicator: TA100, Metabolic Activation: RAT, LIVER, S-9, AROCLOR 1254 (2%), Method: STANDARD PLATE): active; positive
- mutagenic call (Strain/Indicator: TA100, Metabolic Activation: RAT, LIVER, S-9, AROCLOR 1254, Method: SPIRAL ASSAY): active; positive
- mutagenic call (Strain/Indicator: TA100, Metabolic Activation: RAT, LIVER, S-9, AROCLOR 1254, Method: STANDARD PLATE): active; positive
